{"source": "patent US8110365B2", "about": "“Compositions and methods for detecting and treating renal injury and inflammation” (Rhode Island Hospital, priority 2006, dated 2012)", "key": {"E-selectin": {"test_system": "E-selectin", "assay": "TNF-α induced E-selectin expression in HUVEC", "assay_type": "cell-based, human"}, "endothelial cells": {"test_system": "endothelial cells", "assay": "Monocyte adhesion to TNF-α-activated endothelial monolayers", "assay_type": "cell-based, human"}, "MCP-1 and RANTES [1]": {"test_system": "MCP-1 and RANTES", "assay": "TNF-α induced chemokine (MCP-1, RANTES) expression in HKC cells", "assay_type": "cell-based, human", "description": "In certain embodiments, Enzyme-linked Immunosorbent assay (ELISA) is used to evaluate GSK3b proten level. For example, rat kidneys were homogenized in RIPA [1% Nonidet P-40, 0.1% SDS, 100ug/ml phenylmethysulfonyl fluoride (PMSF), 0.5% sodium deoxycholate, 1 mM sodium orthovanadate, 2 ug/ml aprotin, 2 ug/ml leupeptin, 5 mM EDTA in PBS] buffer. Chemokine levels in homogenates of equal amounts of total protein were measured using specific sandwich enzyme immunometric assay kits for rat. Chemokines in conditioned media from HKC were determined by specific sandwich ELISA kits for human (R&D Systems) according to the manufacturer's instructions. Results were normalized for protein amounts in kidney homogenates, or for cell number in cultures.\n(§1) Human proximal TEC (HKC-8) (courtesy of Dr. L. Racusen of John Hopkins University, Baltimore, Md.) were maintained in Dulbecco's modified Eagle's medium (DMEM)/F12 supplemented with 5% fetal bovine serum (FBS). Cells were plated at approximately 70% confluence in the media containing 5% FBS for 24 h and then underwent serum starvation for another 24 h. Human recombinant HGF and human recombinant TNF-α (R&D systems, Minneapolis, Minn.) were added to the culture with fresh serum-free medium at a final concentration of 20 ng/ml and 2 ng/ml respectively, or otherwise as indicated. Cell viability was assessed by Trypan blue exclusion. At different time points, cells and conditioned media were harvested for further investigation."}, "NFkB p65": {"test_system": "NFkB p65", "assay": "TNF-a induced NFkB p65 phosphorylation in HKC cells (immunoblot)", "assay_type": "cell-based, human", "description": "as §1\nAfter different treatments, HKC cells were washed with PBS and lysed with RIPA buffer supplemented with protease inhibitors [1% Nonidet P-40, 0.1% SDS, 100 ug/ml phenylmethysulfonyl fluoride (PMSF), 0.5% sodium deoxycholate, ImM sodium orthovanadate, 2 ug/ml aprotin, 2 ug/ml leupeptin, 5mM EDTA in PBS]. Protein concentration was determined by using a bicinchoninic acid protein assay kit (Sigma). All samples with equal amounts of total protein (50 ug/ml) were fractionated by 7.5˜15% SDS-polyacrylamide gels under reducing condition and analyzed by western immunoblot as described previously (30). The antibodies against p-GSK3b, p-NFkB p65, p-IkBa were purchased from Cell Signaling Technology (Beverly, Mass.) and those for GSK3b, hemagglutin were from Santa Cruz Biotechnology (Santa Cruz, Calif.)."}, "GSK3b and NFkB p65 [2]": {"target": "T1, GSK3b and NFkB p65 (Homo sapiens, UniProt P49841)", "T1 construct": "whole cell lysates were subjected to immunoprecipitation by anti-GSK3b or anti-p65 antibody; endogenous in cells; host or cells: HKC-8", "T1 sequence (P49841 whole entry)": "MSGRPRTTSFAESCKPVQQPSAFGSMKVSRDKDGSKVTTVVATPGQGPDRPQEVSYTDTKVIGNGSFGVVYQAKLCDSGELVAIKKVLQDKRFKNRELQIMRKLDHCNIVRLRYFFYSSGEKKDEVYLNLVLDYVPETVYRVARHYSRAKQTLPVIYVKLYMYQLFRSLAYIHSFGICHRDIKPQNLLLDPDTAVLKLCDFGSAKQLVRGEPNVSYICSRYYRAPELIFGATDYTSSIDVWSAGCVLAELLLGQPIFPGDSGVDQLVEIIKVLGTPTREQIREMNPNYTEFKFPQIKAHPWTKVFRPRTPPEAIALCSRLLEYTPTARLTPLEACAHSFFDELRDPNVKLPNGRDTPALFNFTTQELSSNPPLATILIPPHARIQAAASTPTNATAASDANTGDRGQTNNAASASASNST", "assay": "Co-immunoprecipitation of GSK3b and NFkB p65 in HKC cells", "assay_type": "cell-based", "description": "(§2) Immunoprecipitation was carried out by using an established method as described previously. Briefly, cells were washed with ice cold PBS and then lysed with RIPA buffer. After preclearing with normal IgG, cell lysates with equal amount of total protein (0.5 mg of protein) were incubated overnight at 4° C. with 4 μg specific agarose-conjugated antibodies. The precipitated complexes were collected, washed, and separated on SDS-polyacrylamide gels and blotted with various antibodies as indicated."}, "GSK3b and NFkB p65 [3]": {"target": "T2, GSK3b and NFkB p65 (Homo sapiens, UniProt P49841, S9A)", "T2 construct": "endogenous in cells; host or cells: HKC-8", "T2 sequence (P49841 whole entry S9A)": "as the sequence (P49841 whole entry) above, with S9A counted along it", "assay": "Co-immunoprecipitation of GSK3b and NFkB p65 in HKC cells", "assay_type": "cell-based", "conditions": "HKC cells expressing S9A, TNF-a stimulation", "description": "as §2"}, "NF-κB": {"test_system": "NF-κB", "assay": "NF-κB luciferase reporter gene assay in endothelial cells", "assay_type": "cell-based, human", "conditions": "24 h", "description": "(§3) To explore the role of GSK3b in HGF suppression of inflammation, we examined the effect of HGF on NF-κB activation in endothelial cells (FIG. 8A˜C) and TEC (FIG. 8D). […] (FIG. 8A). To determine whether HGF modulation of NF-κB transcriptional activity alters target gene (E-selectin) levels, DNA affinity precipitation assay was carried out at 4 h after treatment. Proteins in cell lysates were pulled down by biotin labeled oligonucleotides with the sequence of the E-selectin promoter region spanning the κB elements. […] To further examine the effect of HGF on NF-κB binding to the E-selectin gene in vivo, chromatin immunoprecipitation (ChIP) was applied at 4 h after treatments (FIG. 8C)."}, "[4]": {"test_system": "NF-κB p65 binding to E-selectin promoter", "assay": "DNA affinity precipitation and ChIP of NF-κB p65 at the E-selectin promoter in HUVEC", "assay_type": "cell-based, human", "conditions": "4 h after treatment", "description": "as §3"}, "endothelial E-selectin": {"test_system": "endothelial E-selectin", "assay": "Acute inflammation induced by bolus injection of TNF-α in vivo", "conditions": "infusion of exogenous HGF"}, "MCP-1 and RANTES [5]": {"test_system": "MCP-1 and RANTES", "assay": "Chemokine expression in immortalized rat proximal tubular cells (IRPTC)", "assay_type": "cell-based"}, "GSK3b": {"target": "T3, GSK3b (Rattus norvegicus, UniProt P18266)", "T3 construct": "from tissue; host or cells: rat kidney (homogenate)", "T3 sequence (P18266 whole entry)": "as the sequence (P49841 whole entry) above, with V240M, T390P, T392A, A400T, T402A counted along it", "assay": "Renal GSK3b expression in the kidney", "assay_type": "in vivo", "description": "In certain embodiments, measurement of GSK level and activity in tissue samples is carried out as follows. Total expression of GSK3b, is measured by western immunoblot in kidney homogenates using a commercially available mouse monoclonal antibody against rat GSK3b (Santa Cruz Biotechology). Densitometric analysis of immunoblot bands is used to compare protein abundance of GSK3b in remnant kidneys and controls at each time point."}}, "note": "Entries after “also recorded” stand apart in the source; their conditions may differ."}
{"substance": "HGF: Human recombinant HGF (R&D systems); induces inhibitory phosphorylation of GSK3b", "values": [{"measurement": "HGF inhibition of TNF-a induced E-selectin expression", "setting": "E-selectin; HUVEC expressing uninhibitable mutant S9A-GSK3b", "value": "abolished HGF suppression of E-selectin; also recorded: abolished the suppressive action of HGF; also recorded: abolishes HGF inhibition of endothelial E-selectin"}, {"measurement": "HGF inhibition of TNF-a induced E-selectin expression", "setting": "E-selectin; HUVEC transfected with pcDNA3 or HA-WT-GSK3b", "value": "HGF inhibition of E-selectin expression was evident"}, {"measurement": "TNF-α induced E-selectin expression", "setting": "E-selectin; HUVEC, lithium 20 mM, HGF 100 ng/ml, TNF-a 0.5 ng/ml", "value": "suppressed endothelial expression of E-selectin; also recorded: suppressed TNF-α-induced expression of E-selectin; also recorded: attenuates TNF-α elicited E-selectin expression; also recorded: attenuates TNF-a (0.5 ng/ml) elicited E-selectin expression"}, {"measurement": "monocytic adhesion to endothelial cells", "setting": "endothelial cells", "value": "abrogated monocyte adhesion to TNF-α-activated endothelial monolayers; also recorded: inhibited E-selectin mediated monocytic adhesion to endothelial cells"}, {"measurement": "HGF inhibition of chemokine (RANTES, MCP-1) expression", "setting": "MCP-1 and RANTES [1]; HKC cells expressing uninhibitable mutant S9A-GSK3b", "value": "abolished HGF inhibition of basal and TNF-α stimulated RANTES expression; also recorded: abolished HGF suppression of E-selectin; also recorded: abolishes HGF's inhibitory effect"}, {"measurement": "HGF inhibition of chemokine (RANTES, MCP-1) expression", "setting": "MCP-1 and RANTES [1]; HKC cells transfected with pcDNA3 or WT-GSK3b", "value": "did not alter the inhibitory action of HGF on RANTES; also recorded: HGF inhibition of chemokine expression was evident"}, {"measurement": "basal and TNF-α induced chemokine (RANTES, MCP-1) expression", "setting": "MCP-1 and RANTES [1]; HKC cells, lithium 20 mM, HGF 20 ng/ml, TNF-a 2 ng/ml", "value": "suppresses basal and TNF-α-induced expression of RANTES in a time and dose dependent fashion; also recorded: suppressed MCP-1 and RANTES in a time and dose dependent manner; also recorded: blocked this induction; also recorded: attenuates TNF-α elicited chemokine expression; also recorded: attenuates TNF-a (2 ng/ml) elicited chemokine expression"}, {"measurement": "TNF-a induced p65 phosphorylation at other sites (S276, S536)", "setting": "NFkB p65; HKC cells", "value": "had minimal effect on S276"}, {"measurement": "HGF inhibition of TNF-a-induced phosphorylation of p65 at S468", "setting": "NFkB p65; HKC cells expressing GSK3b S9A", "value": "strikingly abolished in cells expressing S9A; also recorded: obliterated in HKC cells expressing GSK3b S9A"}, {"measurement": "TNF-a induced p65 phosphorylation at S468", "setting": "NFkB p65; HKC cells, TNF-a 2 ng/ml, VPA 1 mM, 10 uM for 60 minutes", "value": "markedly abolished TNF-a induced phosphorylation of S468 in a time dependent fashion; also recorded: suppresses NFkB phosphorylation specifically at S468"}, {"measurement": "TNF-a induced co-precipitation of phosphorylated p65 (Ser468) with GSK3b", "setting": "GSK3b and NFkB p65 [2]; HKC cells, immunoprecipitation by anti-GSK3b", "value": "abrogated TNFa induced co-precipitation"}, {"measurement": "TNF-a induced GSK3b to p65 interaction", "setting": "GSK3b and NFkB p65 [2]; HKC cells, immunoprecipitation by anti-p65", "value": "remarkably overridden by HGF; also recorded: suppressive effect on physical interaction between GSK3b and RelA/p65"}, {"measurement": "co-precipitation of HA-tagged GSK3b with p65 / phosphorylated p65(S468)", "setting": "GSK3b and NFkB p65 [2]; WT transfected HKC cells, TNF-a stimulation", "value": "markedly reduced HA co-precipitation with p65 in the WT transfected cells; also recorded: significantly attenuated by HGF in WT transfected cells"}, {"measurement": "co-precipitation of HA-tagged GSK3b with p65 / phosphorylated p65(S468)", "setting": "GSK3b and NFkB p65 [3]", "value": "considerably abrogated in HKC cells expressing S9A; also recorded: substantially blunted in cells expressing S9A; also recorded: overridden in cells expression the mutant uninhibitable GSK3b"}, {"measurement": "TNF-α induced NF-κB reporter gene (transcription) activity", "setting": "NF-κB", "value": "suppressed TNF-a induced NF-kB reporter gene activity; also recorded: significantly reduced TNF-α induced NF-κB transcription activity; also recorded: blunts NF-kB activation"}, {"measurement": "TNF-α induced NF-κB binding to E-selectin promoter / gene", "setting": "[4]", "value": "counteracted NF-kB interaction with kB elements at the E-selectin gene level; also recorded: significantly blunted TNF-α induced NF-κB binding to E-selectin promoter sequence; also recorded: prevents NF-κB mediated transcription of E-selectin; also recorded: blunts NF-kB activation and its target E-selectin gene"}, {"measurement": "endothelial expression of E-selectin", "setting": "endothelial E-selectin", "value": "reduced endothelial expression of E-selectin induced by bolus injection of TNF-α"}, {"measurement": "sequestration of circulating macrophages in the kidney", "setting": "endothelial E-selectin", "value": "less sequestration of circulating macrophages in the kidney"}, {"measurement": "basal and TNF-α induced expression of MCP-1 and RANTES", "setting": "MCP-1 and RANTES [5]", "value": "suppressed basal and TNF-α induced expression of MCP-1 and RANTES"}, {"measurement": "renal GSK3b expression", "setting": "GSK3b", "value": "markedly decreased GSK3b expression"}]}
